Experimental findings from patent publication US8148371B2, “Adenine compound and use thereof” (Dainippon Sumitomo Pharma Co., Ltd., priority 2002, dated 2012) are described below.

The subject of one series is cells of rat spleen. Briefly: cells. The class given is cell-based, SD rat. The following applies: for minimal effective concentration: 24 h, read-out: Minimum effective concentration (interferon inducing activity).
The next series relates to plasma esterase. The following applies: rat plasma, 37° C., 15 minutes.
Series [1] in a line: Metabolic stability on liver S9 of rat. The following applies: 37° C.
Protocol: The compound of the present invention is added to liver S9 solution, and the mixture is incubated at 37±0.5° C. for 5 minutes to 2 hours. By quantitatively analyzing at the definite interval the amount of the compound of the present invention remaining in the liver S9 solution with HPLC (high performance liquid chromatography), etc., the constant of quenching velocity is calculated and the half life is calculated.
The reaction on river S9 of a rat was carried out on a 96-well plate by using a robot for screening by Tecan Company. S9 solution was prepared by adding to 10 ml of liver S9 of a rat, 20 ml of 250 mM Kpi (pH 7.4) and 20 ml of deionized water. Cofactor solution was prepared by dissolving NADPH (220 mg) in deionized water (40.5 ml) to give finally a 6 mM solution. IS (Internal Standard) solution was prepared by adding 300 μL of IS solution (1 mM DMSO solution) to 30 ml of acetonitrile solution (100 times dilution). The test compound (1 μM DMSO solution) was dissolved in an incubator at 37° C., 35 μL of it was poured into each well of a 96-well plate (24 samples/plate and then, plates (a sample plate, a 96 well-plate for dilution, deep well plates for reaction and recovering, a plate for extraction of the solid phase) and the test samples (S9 solution, Cofactor solution, IS (Internal Standard) solution, Stop solution, acetonitrile for elution) were set to the specified position in the booth of the robot. The reaction started (the concentration of the test compound was 1 μM) and the mixture was incubated at 37° C. under stirring. The solid phase was extracted and at the same time the internal standard for analysis was added. To the recovered sample (200 μL/well) was added 50 μL of acetonitrile per each well and to 2 plates of FALCON Deep well were poured 100 μL of the solution per well. By subjecting to the LC/MS analysis, the chromatogram of the test sample and the internal standard were described and the peak area was calculated. And then, the stability (residual rate after reaction) was calculated by the internal standard method.
The mark [2] stands for this setting: rat liver S9, test compound 1 μM.
Setting [3] is: rat liver S9, test compound 10 μM (*).

The structures appear in SMILES notation. Like-named read-outs stand apart in the source and are kept apart here. Marks after values point to notes of the source that are not given here.

Protocol for plasma esterase: The compound of the present invention is added to the serum solution, and the mixture is incubated at 37±0.5° C. for 5 minutes to 2 hours. By quantitatively analyzing at the definite interval the amount of the compound of the present invention remaining in the serum solution with HPLC (high performance liquid chromatography), etc., the constant of quenching velocity calculated and the half life is calculated.
The serum herein means the supernatant fraction obtained by excluding hemocytes and blood coagulation factor from blood by centrifugation, etc. The serum diluted with buffer, etc. can be used.
The metabolic stability of the test compound was presented by the residual amount (%) per the concentration of pre-metabolization.

Turning to `CCCCOc1nc(N)c2nc(O)n(Cc3cccc(C(=O)OCC)c3)c2n1` [Example 2, 2-Butoxy-8-hydroxy-9-(3-ethoxycarbonylbenzyl)adenine], the minimal effective concentration in the series with cells of rat spleen was 0.001 µM. Further, the Residual rate with plasma esterase (test compound 10 μM) is 5%; in series [1] (setting [2]), 11%.

With `CCCCOc1nc(N)c2nc(O)n(Cc3cccc(C(=O)OC(C)C)c3)c2n1` [Example 3, 2-Butoxy-8-hydroxy-9-(3-isopropoxycarbonylbenzyl)adenine], the Residual rate with plasma esterase (test compound 10 μM) is listed as 20%; in series [1] (setting [2]) it was 19%.

For the molecule `CCCCOc1nc(N)c2nc(O)n(Cc3cccc(C(=O)OCC(F)(F)F)c3)c2n1` [Example 4, 2-Butoxy-8-hydroxy-9-{3-(2,2,2-trifluorroethoxycarbonyl)benzyl}adenine], the figures for the Residual rate (in the series with plasma esterase (test compound 10 μM); in series [1] (setting [2])) were 23% and 25%, respectively.

Molecule `CCCCOc1nc(N)c2nc(O)n(Cc3cccc(C(=O)OCCOCc4ccccc4)c3)c2n1` [Example 5, 2-Butoxy-8-hydroxy-9-{3-(2-benzyloxyethoxycarbonyl)benzyl}adenine] returned a Residual rate with plasma esterase (test compound 10 μM) of 18%.

Consider `CCCCOc1nc(N)c2nc(O)n(Cc3cccc(C(=O)OCCN4CCOCC4)c3)c2n1` [Example 8, 2-Butoxy-8-hydroxy-9-{3-(2-morpholinoethoxycarbonyl)benzyl}adenine], for which the values for the Residual rate (in the series on plasma esterase (test compound 10 μM); in series [1] (setting [2])) were 16% and 1%, respectively.

Take `CCCCOc1nc(N)c2nc(O)n(Cc3cccc(C(=O)OCc4cccnc4)c3)c2n1` [Example 9, 2-Butoxy-8-hydroxy-9-{3-(3-pyridylmethoxycarbonyl)benzyl}adenine]: the Residual rate in the series with plasma esterase (test compound 10 μM) was determined as 1%.

Take `CCCCOc1nc(N)c2[nH]c(=O)n(Cc3ccc(C(=O)OC)cc3)c2n1` [Example 11, 2-Butoxy-8-hydroxy-9-(4-methoxycarbonylbenzyl)adenine]: the Residual rate in the series with plasma esterase (test compound 10 μM) came out at 13%.

For `CCCCOc1nc(N)c2nc(O)n(Cc3ccc(C(=O)OC(C)C)cc3)c2n1` [Example 12, 2-Butoxy-8-hydroxy-9-(4-isopropoxycarbonylbenzyl)adenine], in the series on plasma esterase (test compound 10 μM), the Residual rate was 29%.

The molecule `CCCCOc1nc(N)c2nc(O)n(Cc3ccc(C(=O)OCc4cccnc4)cc3)c2n1` [Example 13, 2-Butoxy-8-hydroxy-9-{4-(3-pyridylmethoxycarbonyl)benzyl}adenine] registered a Residual rate with plasma esterase (test compound 10 μM) of 10%.

As to `CCCCOc1nc(N)c2nc(O)n(Cc3ccc(C(=O)OC)nc3)c2n1` [Example 17, 2-Butoxy-8-hydroxy-9-{(6-methoxycarbonyl-3-pyridyl)methyl}adenine], the minimal effective concentration with cells of rat spleen came to 0.001 µM. Besides, the Residual rate in the series with plasma esterase (test compound 10 μM) was found to be 0%; in series [1] (setting [2]), 28%.

For the molecule `CCCCOc1nc(N)c2nc(O)n(Cc3ccc(C(=O)OC(C)C)nc3)c2n1` [Example 18, 2-Butoxy-8-hydroxy-9-{(6-isopropoxycarbonyl-3-pyridyl)methyl}adenine], the Residual rate with plasma esterase (test compound 10 μM) is 0%.

As to `CCCCOc1nc(N)c2nc(O)n(Cc3ccc(OCC(=O)OC)cc3)c2n1` [Example 22, 2-Butoxy-8-hydroxy-9-(4-methoxycarbonylmethoxybenzyl)adenine], the Residual rate with plasma esterase (test compound 10 μM) is reported as 0%; in series [1] (setting [2]), 31%.

`CCCCNc1nc(N)c2nc(O)n(Cc3ccc(C(=O)OC)cc3)c2n1` [Example 27, 2-Butylamino-8-hydroxy-9-(4-methoxycarbonylbenzyl)adenine] registered a Residual rate with plasma esterase (test compound 10 μM) of 0%.

With `COC(=O)CNc1nc(N)c2nc(O)n(Cc3ccccc3)c2n1` [Example 31, 9-Benzyl-8-hydroxy-2-methoxycarbonylmethylaminoadenine], the Residual rate in the series on plasma esterase (test compound 10 μM) turned out to be 0%; in series [1] (setting [2]), 3%.

In turn, `CCC(=O)OCCOc1nc(N)c2nc(O)n(Cc3ccc(C)nc3)c2n1` [Example 37, 8-Hydroxy-9-(6-methyl-3-pyridyl)methyl-2-{2-(propionyloxy)ethoxy}adenine] came in with a Residual rate with plasma esterase (test compound 10 μM) of 0%.

With `CCOC(=O)CSc1nc(N)c2nc(O)n(Cc3ccccc3)c2n1` [Example 41, 9-Benzyl-2-(ethoxycarbonylmethyl)thio-8-hydroxyadenine], the Residual rate is 0% with plasma esterase (test compound 10 μM) and 2* % in series [1] (setting [3]).

Regarding `CCCCCCCCOC(=O)CSc1nc(N)c2nc(O)n(Cc3ccccc3)c2n1` [Example 42, 9-Benzyl-8-hydroxy-2-(octyloxycarbonylmethyl)thioadenine], the Residual rate came out at 0% with plasma esterase (test compound 10 μM) and 3% in series [1] (setting [2]).

`CC(C)(C)OC(=O)CSc1nc(N)c2nc(O)n(Cc3ccccc3)c2n1` [Example 43, 9-Benzyl-2-(t-butoxycarbonylmethyl)thio-8-hydroxyadenine]: the results for the Residual rate (in the series on plasma esterase (test compound 10 μM); in series [1] (setting [2])) were 0% and 2%, respectively.

Take `C=CCOC(=O)CSc1nc(N)c2nc(O)n(Cc3ccccc3)c2n1` [Example 44, 2-(Allyloxycarbonylmethyl)thio-9-benzyl-8-hydroxyadenine]: the Residual rate (with plasma esterase (test compound 10 μM); in series [1] (setting [2])) was 0% in each case.

Regarding `Nc1nc(SCC(=O)OCc2ccccc2)nc2c1nc(O)n2Cc1ccccc1` [Example 45, 2-(Benzyloxycarbonylmethyl)thio-9-benzyl-8-hydroxyadenine], the Residual rate is reported as 0% in the series with plasma esterase (test compound 10 μM) and 8* % in series [1] (setting [3]).

Turning to `Nc1nc(SCC(=O)OCCF)nc2c1nc(O)n2Cc1ccccc1` [Example 46, 9-Benzyl-2-(2-fluoroethoxycarbonylmetyl)thio-8-hydroxyadenine], the Residual rate (in the series with plasma esterase (test compound 10 μM); in series [1] (setting [2])) was 0% in each case.

For the molecule `Nc1nc(SCC(=O)OCC(F)F)nc2c1nc(O)n2Cc1ccccc1` [Example 47, 9-Benzyl-2-(2,2-difluoroethoxycarbonylmetyl)thio-8-hydroxyadenine], the Residual rate (in the series with plasma esterase (test compound 10 μM); in series [1] (setting [2])) was 0% throughout.

Turning to `COCCOC(=O)CSc1nc(N)c2nc(O)n(Cc3ccccc3)c2n1` [Example 49, 9-Benzyl-8-hydroxy-2-(2-methoxyethoxycarbonylmethyl)thioadenine], the Residual rate (in the series with plasma esterase (test compound 10 μM); in series [1] (setting [2])) was 0% in each case.

Consider `CCOC(=O)CCSc1nc(N)c2nc(O)n(Cc3ccccc3)c2n1` [Example 55, 9-Benzyl-2-(2-ethoxycarbonylethyl)thio-8-hydroxyadenine], for which the Residual rate was 0% in the series on plasma esterase (test compound 10 μM) and 4* % in series [1] (setting [3]).

Take `CCOC(=O)CCCSc1nc(N)c2nc(O)n(Cc3ccccc3)c2n1` [Example 56, 9-Benzyl-2-(3-ethoxycarbonylpropyl)thio-8-hydroxyadenine]: the Residual rate stood at 0% in the series on plasma esterase (test compound 10 μM) and 1% in series [1] (setting [2]).

`COC(=O)CCc1nc(N)c2nc(O)n(Cc3ccccc3)c2n1` [Example 61, 9-Benzyl-8-hydroxy-2-(2-methoxycarbonylethyl)adenine]: in the series with cells of rat spleen, the minimal effective concentration stood at 0.003 µM. The results for the Residual rate (in the series on plasma esterase (test compound 1 μM (*)); in series [1] (setting [2])) were 0* % and 0%, respectively.

For the molecule `CCOC(=O)CCc1nc(N)c2nc(O)n(Cc3ccccc3)c2n1` [Example 62, 9-Benzyl-2-ethoxycarbonylethyl-8-hydroxy adenine], in the series with cells of rat spleen, the “Minimum effective concentration (interferon inducing activity)” value amounted to 30 nM. In addition, the Residual rate in the series on plasma esterase (test compound 1 μM (*)) is recorded as 0* %.

Take `COC(=O)COc1nc(N)c2nc(O)n(Cc3ccccc3)c2n1` [Example 64, 9-Benzyl-8-hydroxy-2-methoxycarbonylmethoxyadenine]: the minimal effective concentration in the series on cells of rat spleen worked out at 0.003 µM. The Residual rate was 0* % in the series on plasma esterase (test compound 1 μM (*)) and 2% in series [1] (setting [2]).

Regarding `CCOC(=O)COc1nc(N)c2nc(O)n(Cc3ccccc3)c2n1` [Example 65, 9-Benzyl-2-ethoxycarbonylmethoxy-8-hydroxyadenine], the minimal effective concentration in the series with cells of rat spleen was 0.03 µM. The Residual rate with plasma esterase (test compound 1 μM (*)) was 0* %.

Take `CCCCOc1nc(N)c2nc(O)n(Cc3ccc(CC(=O)OCC)cc3)c2n1` [Example 68, 2-Butoxy-8-hydroxy-9-(4-ethoxycarbonylmethylbenzyl)adenine]: the minimal effective concentration in the series on cells of rat spleen amounted to 0.0003 µM. In addition, the Residual rate is 0* % with plasma esterase (test compound 1 μM (*)) and 13% in series [1] (setting [2]).

Consider `CCCCOc1nc(N)c2nc(O)n(Cc3cccc(CC(=O)OCCF)c3)c2n1` [Example 70, 2-Butoxy-8-hydroxy-9-{3-(2-fluoroethoxycarbonyl)methylbenzyl}adenine], for which the minimal effective concentration in the series on cells of rat spleen came to 0.001 µM. In addition, the figures for the Residual rate (in the series on plasma esterase (test compound 1 μM (*)); in series [1] (setting [2])) were 0* % and 16%, respectively.

For the molecule `CCCCOc1nc(N)c2nc(O)n(Cc3ccc(CC(=O)OCCO)cc3)c2n1` [Example 71, 2-Butoxy-8-hydroxy-9-{4-(2-hydroxyethoxycarbonyl)methylbenzyl}adenine], in the series with cells of rat spleen, the minimal effective concentration is 0.0003 µM. Also, the Residual rate in the series on plasma esterase (test compound 1 μM (*)) was 0* %; in series [1] (setting [2]), 0%.

For `CCCCOc1nc(N)c2nc(O)n(Cc3ccc(CC(=O)SCC)cc3)c2n1` [Example 75, 2-Butoxy-9-{4-(S-ethylthiocarbonyl)methylbenzyl}-8-hydroxyadenine], the minimal effective concentration with cells of rat spleen was found to be 0.003 µM. Besides, the Residual rate in the series with plasma esterase (test compound 1 μM (*)) is 0* %.

For the molecule `COC(=O)Cc1ccc(CSc2nc(N)c3nc(O)n(Cc4ccccc4)c3n2)cc1` [Example 106, 9-Benzyl-8-hydroxy-2-[(4-methoxycarbonylmethylbenzyl)thio]adenine], the minimal effective concentration with cells of rat spleen is 0.1 µM. The Residual rate in series [1] (setting [2]) worked out at 3%.

As to `CCCCOC(=O)Cc1nc(N)c2nc(O)n(Cc3ccccc3)c2n1` [Example 107, 9-Benzyl-2-butoxycarbonylmethyl-8-hydroxyadenine], the minimal effective concentration in the series on cells of rat spleen stood at 0.1 µM. The same molecule gave a Residual rate in series [1] (setting [2]) of 3%.

On to `CC(C)OC(=O)Cc1nc(N)c2nc(O)n(Cc3ccccc3)c2n1` [Example 108, 9-Benzyl-8-hydroxy-2-(isopropoxycarbonylmethyl)adenine], for which, in the series with cells of rat spleen, the minimal effective concentration was found to be 0.03 µM. Moreover, in series [1] (setting [2]), the Residual rate turned out to be 3%.

For the molecule `Nc1nc(CC(=O)OCCF)nc2c1nc(O)n2Cc1ccccc1` [Example 109, 9-Benzyl-2-(2-fluoroethoxycarbonyl)methyl-8-hydroxyadenine], the minimal effective concentration in the series with cells of rat spleen was 0.03 µM. Further, the Residual rate in series [1] (setting [2]) came out at 0%.
